The source of these data is patent US7220720B2, “Melanin-concentrating hormone analogs” (Merk & Co., Inc., priority 2000, dated 2007).

Where two headings read alike, the source gives them in different places. Where a SMILES comes first, the peptide text is derived from it. Bridges are numbered along the chain shown (N, C = ends).

The IC50 is the concentration needed to halve the response being measured. For orientation: EC50 means the concentration that produces a half-maximal response.

Assay [1] concerns the target T1, human MCH receptor (Homo sapiens, UniProt Q99705). The experiment in a line: Aequorin bioluminescence functional assay in 293-AEQ17 cells transfected with human MCH receptor. The class given is cell-based. Also noted: expressed in transfected cells; host or cells: 293-AEQ17 (aequorin-expressing HEK-293 reporter line), transient lipofectamine transfection, pcDNA-3 vector; Activity Activation %: concentration or dose not given beside the values. The following applies: for % Activation at 10 μM: Table 1, aequorin functional assay. The protocol:
The aequorin bioluminescence assay is a reliable test for measuring the activity of G protein-coupled receptors that couple through the Gα protein subunit family consisting of Gq and Gll and leads to the activation of phospholipase C, mobilization of intracellular calcium and activation of protein kinase C.
Following approximately 40 hours of expression the apo-aequorin in the cells was charged for 4 hours with coelenterazine (10 μM) under reducing conditions (300 μM reduced glutathione) in ECB buffer (140 mM NaCl, 20 mM KCl, 20 mM HEPES-NaOH [pH=7.4], 5 mM glucose, 1 mM MgCl2, 1 mM CaCl2, 0.1 mg/ml bovine serum albumin).
The cells were harvested, washed once in ECB medium and resuspended to 500,000 cells/ml. 100 μl of cell suspension (corresponding to 5×10^4 cells) was then injected into the test plate containing MCH or MCH analogs, and the integrated light emission was recorded over 30 seconds, in 0.5 second units. 20 μL of lysis buffer (0.1% final Triton X-100 concentration) was then injected and the integrated light emission recorded over 10 seconds, in 0.5 second units. The “fractional response” values for each well were calculated by taking the ratio of the integrated response to the initial challenge to the total integrated luminescence including the Triton X-100 lysis response.

For assay [2], the target named is T1, human MCH receptor. The experiment in a line: Radiolabeled MCH-R binding assay: inhibition of [125I]-human MCH (Phe13, Tyr19 substituted) binding to cell membranes (filter or SPA format). The arrangement: expressed in transfected cells. The procedure: Cell membranes were prepared on ice. Each T-75 flask was rinsed twice with 10 ml of Enzyme-free Cell Dissociation Buffer (Specialty Media, Lavallette, N.J.), and the cell monolayer was detached in an additional 10 ml of Enzyme-free Cell Dissociation Buffer by incubation at room temperature for 10 minutes. Dissociated cells were centrifuged (500×g for 10 minutes at 4° C.), resuspended in 5 ml homogenization buffer (10 mM Tris-HCl, pH 7.4, 0.01 mM Pefabloc, 10 μM phosphoramidon, 40 μg/ml bacitracin) and then homogenized using a glass homogenizer (10–15 strokes). The homogenate was centrifuged for 10 minutes (1,000×g at 4° C.). The resulting supernatant was then centrifuged at 38,700×g for 15 minutes at 4° C. Pelleted membranes were resuspended (passed through 25 gauge needle 5 times), snap-frozen on liquid nitrogen, and stored at −80° C. until use.
Binding was performed in a 96-well filter assay or Scintillation Proximity Assay (SPA)-based format using cell membranes from a stable CHO or HEK-293 cell line expressing the MCH receptor. For the filter assay, reactions were performed at 20° C. for 1 hour in a total volume of 0.2 ml containing: 0.05 ml of membrane suspension (˜3 μg protein), 0.02 ml of [^125I]-human MCH (Phe^13, Tyr^19 substituted; 30 pM), 0.01 ml of competitor and 0.12 ml of binding buffer (50 mM Tris-HCl, pH 7.4, 10 mM MgCl2, 2 mM EDTA, 200 μg/ml bacitracin, 1 μM phosphoramidon).
Bound radioligand was separated by rapid vacuum filtration (Packard Filtermate 96-well cell harvester) through GF/C filters pretreated for 1 hour with 1% polyethylenimine. After application of the membrane suspension to the filter, the filters were washed 3 times with 3 ml each of ice-cold 50 mM Tris-HCl, pH 7.4, 10 mM MgCl2, 2 mM EDTA, 0.04% Tween 20 and the bound radioactivity on the filters was quantitated by scintillation counting (TopCount device).
For the SPA-based assay, WGA-PVT beads (NEN Life Sciences Products) were resuspended in Dulbecco's PBS with calcium and magnesium (500 mg beads in 4 ml PBS). For each 96-well assay plate, 0.18 ml of beads was pre-coated with MCH receptor by mixing with 0.2 ml MCH receptor CHO cell membranes (˜0.2–4 mg protein) and 1.5 ml SPA assay buffer (50 mM Tris-HCl, pH 7.4, 10 mM MgCl2, 2 mM EDTA, 0.1% BSA, 12% glycerol). The suspension was mixed gently for 20 minutes, 12.3 ml of assay buffer and protease inhibitors were added (final concentration given): 2 μg/ml leupeptin, 10 μM phosphoramidon, 40 μg/ml bacitracin, 5 μg/ml aprotinin, 0.1 mM Pefabloc.
Coated beads were kept on ice until use. For each well, 0.145 ml of beads were added to Optiplate assay plates (Packard 6005190), followed by 0.002–0.004 ml of competitor and 0.05 ml of [^125I]-human MCH (Phe^13, Tyr^19 substituted; 30 pM). Binding reactions were allowed to proceed at room temperature for 3 hours. Quantitation was performed by scintillation counting (TopCount device).

Setting [3] is: Table 5, position 10 modification.
Setting [4] is: Table 5, position 10 modification, read-out: Activity IC50.
[5] abbreviates: Table 1, SPA based assay, read-out: Binding Assay IC50.
[6] abbreviates: Table 3, N-methyl-amino acid analogs.
Setting [7] is: Table 6, position 13 modification.
The mark [8] stands for this setting: Table 7, combinations and position 8.

T1 sequence (Q99705 whole entry): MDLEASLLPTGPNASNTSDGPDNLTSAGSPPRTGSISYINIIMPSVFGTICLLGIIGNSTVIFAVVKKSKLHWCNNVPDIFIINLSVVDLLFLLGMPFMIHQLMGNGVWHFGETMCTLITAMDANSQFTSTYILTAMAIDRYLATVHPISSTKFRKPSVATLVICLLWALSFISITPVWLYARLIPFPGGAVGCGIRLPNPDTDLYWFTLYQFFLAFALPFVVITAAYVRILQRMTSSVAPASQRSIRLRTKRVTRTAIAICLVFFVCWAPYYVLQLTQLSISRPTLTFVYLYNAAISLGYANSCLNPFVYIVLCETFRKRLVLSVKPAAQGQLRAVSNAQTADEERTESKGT

As for `CSCC[C@@H]1NC(=O)[C@@H](NC(=O)[C@H](CCCNC(=N)N)NC(C)=O)CSSC[C@@H](C(N)=O)NC(=O)[C@@H]2CCCN2C(=O)[C@H](CCCNC(=N)N)NC(=O)[C@H](Cc2ccc(O)cc2)NC(=O)[C@H](C(C)C)NC(=O)[C@H](CCCNC(=N)N)NC(=O)[C@H](CCCCN)NC(=O)[C@H](CC(C)C)NC1=O` [compound 53], the “Activity Activation %” value at human MCH receptor [1] (setting [3]) is 25%. Moreover, the IC50 at human MCH receptor [2] (setting [4]) was 110 nM.

As to `CSCC[C@@H]1NC(=O)[C@@H](NC(=O)[C@H](CCCNC(=N)N)NC(=O)[C@H](CC(C)C)NC(=O)[C@H](CCSC)NC(=O)[C@H](CC(=O)O)NC(=O)[C@H](Cc2ccccc2)NC(=O)[C@@H](N)CC(=O)O)CSSC[C@@H](C(N)=O)NC(=O)[C@@H]2CCCN2C(=O)[C@H](CCCNC(=N)N)NC(=O)[C@H](Cc2ccc(O)cc2)NC(=O)[C@H](C(C)C)NC(=O)[C@H](CCCNC(=N)N)NC(=O)CNC(=O)[C@H](CC(C)C)NC1=O` [compound 10] (H-DFDMLRCMLGRVYRPC-NH2; disulfide 7-16), on human MCH receptor [1], the “% Activation at 10 μM” value is reported as 99%. In addition, the IC50 at human MCH receptor [2] (setting [5]) is 0.3 nM.

`CSCC[C@@H]1NC(=O)[C@@H](NC(=O)[C@H](CCCNC(=N)N)NC(C)=O)CSSC[C@@H](C(N)=O)NC(=O)[C@@H]2CCCN2C(=O)[C@H](CCCNC(=N)N)NC(=O)[C@H](Cc2ccc(O)cc2)NC(=O)[C@H](C(C)C)NC(=O)[C@H](CCCNC(=N)N)NC(=O)CNC(=O)[C@H](CC(C)C)NC1=O` [compound 7]: on human MCH receptor [1], the “% Activation at 10 μM” value was determined as 123%. Moreover, the “Activity Activation %” value is recorded as 99% at human MCH receptor [1] (Table 2, D-amino acid analogs); 99% at human MCH receptor [1] (setting [6]); 99% at human MCH receptor [1] (Table 4, position 6 modification); 99% on human MCH receptor [1] (setting [3]); 99% at human MCH receptor [1] (setting [7]); 99% on human MCH receptor [1] (setting [8]). The EC50 is 20 nM at human MCH receptor [1] (Table 2, D-amino acid analogs); 20 nM on human MCH receptor [1] (setting [6]); 20 nM at human MCH receptor [1] (setting [3]); 20 nM at human MCH receptor [1] (setting [7]); 20 nM on human MCH receptor [1] (setting [8]). The IC50 on human MCH receptor [2] (Table 2, D-amino acid analogs, read-out: Activity IC50) came to 0.5 nM; on human MCH receptor [2] (Table 3, N-methyl-amino acid analogs, read-out: Activity IC50), 1.4 nM; on human MCH receptor [2] (setting [4]), 0.5 nM.

`CSCC[C@@H]1NC(=O)[C@@H](NC(=O)[C@H](CCCNC(=N)N)NC(C)=O)CSSC[C@@H](C(=O)N[C@@H](Cc2ccc(O)cc2)C(N)=O)NC(=O)[C@@H]2CCCN2C(=O)[C@H](CCCNC(=N)N)NC(=O)[C@H](Cc2ccccc2)NC(=O)[C@H](C(C)C)NC(=O)[C@H](CCCNC(=N)N)NC(=O)CNC(=O)[C@H](CC(C)C)NC1=O` [compound 8] (Ac-RCMLGRVFRPCY-NH2; disulfide 2-11): the “% Activation at 10 μM” value at human MCH receptor [1] stood at 123%. Besides, on human MCH receptor [2] (setting [5]), the half-maximal inhibitory concentration (IC50) came to 0.16 nM.

As to `CSCC[C@@H]1NC(=O)[C@@H](NC(=O)[C@H](CCCNC(=N)N)NC(C)=O)CSSC[C@@H](C(N)=O)NC(=O)[C@@H]2CCCN2C(=O)[C@H](CCCNC(=N)N)NC(=O)[C@H](Cc2ccc(O)cc2)NC(=O)[C@H](C(C)C)NC(=O)[C@H](CCCNC(=N)N)NC(=O)[C@@H]2CCCN2C(=O)[C@H](CC(C)C)NC1=O` [compound 50], the “Activity Activation %” value at human MCH receptor [1] (setting [3]) was found to be 4%. The IC50 at human MCH receptor [2] (setting [4]) is 700 nM.

On to `CSCC[C@@H]1NC(=O)[C@@H](NC(C)=O)CSSC[C@@H](C(N)=O)NC(=O)[C@@H]2CCCN2C(=O)[C@H](CCCNC(=N)N)NC(=O)[C@H](Cc2ccc(O)cc2)NC(=O)[C@H](C(C)C)NC(=O)[C@H](CCCNC(=N)N)NC(=O)CNC(=O)[C@H](CC(C)C)NC1=O` [compound 9], for which the “% Activation at 10 μM” value at human MCH receptor [1] is reported as 74%. Moreover, the IC50 on human MCH receptor [2] (setting [5]) turned out to be 1.6 nM.
